Where a name gives a salt, the structure may show the parent alone. Peptide text beside a SMILES is read from it. * marks the point of attachment. Cbz = O=C(OCc1ccccc1)*; CH2F = FC*
Columns and labels:
WEHI 231 cells [1] = experiment: TUNEL analysis of Actinomycin D induced apoptosis, flow cytometry; type: cell-based, murine; set-up: key to rank of result in TUNEL analysis: ***: Best result; **: Second best result; *: Third best result; details: for effective concentration in TUNEL test: blind test by TUNEL method, conclusions; for efficacy in TUNEL test, in words: 10 sequences in a blind test
Description: Flow Cytometry measures the percent of the cell population undergoing apoptosis. The effect of the inhibitors is identified as a reduction in the percent of the cell population undergoing apoptosis. Cell Type: WEHI 231 cells, murine immature B cells (suspension) Plate cells at 2×10^5/ml in 10 ml of media (Total 2×10^6 cells) Preincubate caspase inhibitors (Formula I) one hour before inducing apoptosis. […] Actinomycin D (ActD) stock is 1 μg/μl add 10 μl/10 ml)-Treat 4 h Process for Tunel Analysis. (See Table 2 below). […] Cell Processing for Tunel Analysis and Flow Cytometry. Centrifuge cells at 300× g for 5 min and aspirate supernatant. Resuspend cells in 5.0 ml of cold 1× PBS, Spin at 300× g, 5 min. Aspirate supernatant. […] Incubate for 15 min. on ice. […] Aspirate supernatant. […] Aspirate supernatant. […] Aspirate supernatant. Resuspend the cell in 300 μl of cold IX PBS, Transfer to a 1.5 ml tube. […] Store at −20° C. at least 18 hr prior to Tunel Labeling Fixed cells are stable for at least 30 days. Process fixed cells for Tunel using the Apo-BRDU kit from Pharmingen (San Diego, Calif.) following the manufacturer's instructions and analyze by flow cytometry.

WEHI 231 cells [2] = experiment: TUNEL analysis, inhibitor alone (toxicity control); type: cell-based, murine; details: no ActD
Description: Flow Cytometry measures the percent of the cell population undergoing apoptosis. The effect of the inhibitors is identified as a reduction in the percent of the cell population undergoing apoptosis. Cell Type: WEHI 231 cells, murine immature B cells (suspension) Plate cells at 2×10^5/ml in 10 ml of media (Total 2×10^6 cells) Preincubate caspase inhibitors (Formula I) one hour before inducing apoptosis. […] [table] Process fixed cells for Tunel using the Apo-BRDU kit from Pharmingen (San Diego, Calif.) following the manufacturer's instructions and analyze by flow cytometry.

caspase 1 = molecular target: T1, caspase 1 (Homo sapiens, UniProt P29466); experiment: Caspase inhibition assay, AcYVAD-AFC substrate; type: biochemical; details: from figure, antilog of log concentration; read-out: IC50 caspase 1
T1 sequence (P29466 120-297 limits assumed): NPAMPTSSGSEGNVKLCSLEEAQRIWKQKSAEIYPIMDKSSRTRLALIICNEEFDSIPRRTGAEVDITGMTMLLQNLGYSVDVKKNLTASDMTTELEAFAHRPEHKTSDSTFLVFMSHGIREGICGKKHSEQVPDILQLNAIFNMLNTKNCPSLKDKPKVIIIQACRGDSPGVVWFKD
T1 sequence (P29466 317-404 limits assumed): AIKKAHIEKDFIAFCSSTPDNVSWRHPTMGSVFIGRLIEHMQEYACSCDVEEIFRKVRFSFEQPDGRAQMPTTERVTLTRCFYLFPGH
Description: The determination of the IC50/μm was performed according to Gary Johnson, 9401 James Avenue, Suite No. 155, Bloomington, Minn. 55431.
Caspase Inhibition Assay:—Caspases are diluted in caspase buffer, 0.1 M HEPES, 10% sucrose 0.1% CHAPS and 10 mM DTT, pH 7.5. Caspases 1, 3, and 8 are used at a concentration of 144 U/well and caspase 9 is used at 4.8 U/well in a 96 well fluorometric plate.
Inhibitors are initially dissolved in DMSO at 10 mg/ml and further dilutions can be prepared in caspase buffer. The inhibitors are generally tested at concentrations ranging from 50 uM to 0.005 uM. These are usually prepared as 2 fold or 2.5 fold decreasing dilutions. The enzyme approximately 144 U in 120 ul caspase buffer is added to 380 ul caspase buffer containing the appropriate concentration on the inhibitor and incubated on ice for 15 min. The reactants 200 ul are then added to a black fluorimetric plate and incubated in the fluorometer at 37° C. for 30 min.
During the incubation period appropriate coumarin substrates are prepared by dilution in DMSO and caspase buffer to provide a 0.417 mM working stock. AcYVAD-AFC is used for caspase 1, AcDEVD-AFC for caspase 3. AcIETD-AFC for caspase 8 and Ac-LEHD-AFC for capsase 9. Twenty five microliters of the stock solution are added to 200 ul of the caspase and inhibitor test solutions to give a final substrate concentration of 0.046 mM.
The fluorometer is set to 400 nm excitation and 505 nm emission. The enzyme-inhibitor-substrate is allowed to incubate at for an additional twenty min. and the response is read as fluorescence units vs inhibitor concentration. The responses are plotted as percent of the maximum response (response in the absence of inhibitor) for each concentration of the inhibitor. The inhibitory activity for each inhibitor is described as the concentration of inhibitor that produces a 50% inhibition of the maximum response (IC50).

[3] = 1 μM inhibitor + ActD, WEHI 231, lower = greater inhibitory activity
[4] = 10 μM inhibitor + ActD, WEHI 231
[5] = 20 μM inhibitor + ActD, WEHI 231
[6] = 30 μM inhibitor + ActD, WEHI 231
[7] = 40 μM inhibitor + ActD, WEHI 231
[8] = 50 μM inhibitor + ActD, WEHI 231
[9] = 100 μM inhibitor + ActD, WEHI 231
[10] = markers in structure designation table

Molecule | % non-viable cells (WEHI 231 cells [1]; [3]) [%] | % non-viable cells (WEHI 231 cells [1]; [4]) [%] | % non-viable cells (WEHI 231 cells [1]; [5]) [%] | % non-viable cells (WEHI 231 cells [1]; [6]) [%] | % non-viable cells (WEHI 231 cells [1]; [7]) [%] | % non-viable cells (WEHI 231 cells [1]; [8]) [%] | % non-viable cells (WEHI 231 cells [1]; [9]) [%] | effective concentration in TUNEL test (WEHI 231 cells [1]) | % non-viable cells, inhibitor alone (WEHI 231 cells [2]; 20 μM Inh alone) [%] | % non-viable cells, inhibitor alone (WEHI 231 cells [2]; 100 μM Inh alone) [%] | efficacy in TUNEL test, in words (WEHI 231 cells [1]) | rank of result in TUNEL analysis (WEHI 231 cells [1]; Table 3 markers) | rank of result in TUNEL analysis (WEHI 231 cells [1]; [10]) | IC50 (caspase 1) [nM]
4HQ-Ala-Asp(OMe)—CH2—OPh [Inhibitor H^1] | 81 | 92 | 88 | 91 | 85 | 82 | 83 | not effective | 3 | 2 |  |  |  | 
COC(=O)CC(NC(=O)CCNC(=O)c1ccc2ccccc2n1)C(=O)CF (stereo not drawn) [Inhibitor A^1, Q-βAla-Asp(OMe)-FMK] | 62 | 57 | 42 | 40 | 15 | 32 | 9 | 40 µM | 5 | 5 |  |  |  | 
COC(=O)CC(NC(=O)C(C)NC(=O)c1ccc2ccccc2n1)C(=O)CF (stereo not drawn) [Inhibitor D^1, Q-Ala-Asp(OMe)-FMK] | 88 | 67 | 16 | 2 | 1 | 2 | 1 | 20 µM | 6 | 8 | most efficacious | D^1* | Q-Ala-Asp(OMe)-FMK* | 
COC(=O)CC(NC(=O)C(C)NC(=O)C(NC(=O)OCc1ccccc1)C(C)C)C(=O)COc1c(F)cccc1F (stereo not drawn) [Inhibitor G^1, 2-Val-Ala-Asp(OMe)—CH2—OPh] | 56 | 62 | 57 | 52 | 62 | 56 | 8 | 100 µM | 1 | 1 |  |  |  | 
COC(=O)CC(NC(=O)C(NC(=O)c1ccc2ccccc2n1)C(C)C)C(=O)COc1c(F)cccc1F (stereo not drawn) [Inhibitor I^1, Q-Val-Asp(OMe)—CH2—OPh] | 88 | 2 | 3 | 2 | 3 | 2 | 2 | 10 µM | 2 | 53 | most efficacious | I^1*** | Q-Val-Asp(OMe)—CH2—OPh*** | 
COC(=O)CC(NC(=O)C(CC(C)C)NC(=O)c1ccc2ccccc2n1)C(=O)COc1ccccc1 (stereo not drawn) [Inhibitor J^1, Q-Leu-Asp(OMe)—CH2—OPh] | 88 | 16 | 3 | 2 | 2 | 2 | 3 | 10 µM | 1 | 1 | most efficacious | J^1** | Q-Leu-Asp(OMe)—CH2—OPh** | ~940
COC(=O)CC(NC(=O)[C@@H](NC(=O)[C@@H](N)Cc1c[nH]c2ccccc12)C(C)C)C(=O)COc1ccccc1 (stereo partly drawn) [TFA Trp-V-D(OMe)—CH2—O—Ph TFA] |  |  |  |  |  |  |  |  |  |  |  |  |  | ~624
COC(=O)CC(NC(=O)C(C)NC(=O)C(NC(=O)OCc1ccccc1)C(C)C)C(=O)CF (stereo not drawn) [Z-VAD-FMK, Benzyloxycarbonyl-Val-Ala-Asp (OMe) fluoromethylketone, reference compound] (Cbz-Val-Ala-Asp(OMe)-CH2F; configuration not given here) | 33 | 64 | 17 | 19 | 12 | 8 | 6 | 20 µM | 3 | 7 |  |  |  | 
COC(=O)C[C@H](NC(=O)[C@@H](NC(=O)NCCc1c[nH]c2ccc(OC)cc12)C(C)C)C(=O)COc1c(F)cccc1F [melatonin-V-D(OMe)—CH2—O—Ph, 5-methoxytrytamine-carbonyl-Val Asp(OMe)-α-(2-oxy-2,6-Difluorophenyl) Methyl Ketone] |  |  |  |  |  |  |  |  |  |  |  |  |  | ~139
CC(C)[C@H](NC(=O)c1ccc2ccccc2n1)C(=O)N[C@@H](CC(=O)O)C(=O)COc1ccccc1 [quinoline-(2-carbonyl)-V-D-CH2—OPh] |  |  |  |  |  |  |  |  |  |  |  |  |  | ~50
Bzl-melatonin-V-D(OMe)—CH2—O—Ph |  |  |  |  |  |  |  |  |  |  |  |  |  | ~170
HQ-Ala-Asp(OMe)—CH2—OPh [Inhibitor E^1] | 29 | 38 | 13 | 25 | 7 | 12 | 10 | 20 µM | 1 | 1 |  |  |  | 
MQ-Ala-Asp(OMe)—CH2—OPh [Inhibitor F^1] | 32 | 35 | 47 | 61 | 36 | 20 | 21 | not effective | 5 | 5 |  |  |  | 
Q-βAla-Asp(OMe)—CH2—OPh [Inhibitor C^1] | 88 | 87 | 72 | 71 | 78 | 68 | 3 | 100 µM | 3 | 4 |  |  |  | 
hydroxy Trp-TTP-V-D(OMe)—CH2—O—Ph |  |  |  |  |  |  |  |  |  |  |  |  |  | ~115
hydroxy quinoline-(2-carbonyl)-VD-OPh |  |  |  |  |  |  |  |  |  |  |  |  |  | ~38
indole-(2-carbonyl)-3-V-D(OMe)—CH2—O—Ph |  |  |  |  |  |  |  |  |  |  |  |  |  | ~460

Reference: US20020052323A1, “Quinoline-(C=O)-(multiple amino acids)-leaving group compounds for pharmaceutical compositions and reagents” (priority 2000, published 2002)
